According to EP0484596A1, “Organotin compounds and anti-tumor compositions containing them” (priority 1990, dated 1992):

How the values were obtained:
MCF-7 mammary carcinoma = assay: in vitro cell growth inhibition, PIT method, MCF-7; type: cell-based, human; settings: amount which inhibits 50% of the cell growth
Procedure: (§1) The compounds (1), (2) and (3) as well as their starting compounds, i.e. (4), (5) and (6) respectively, [drawing 8] were tested in vitro against the following human tumor cell lines • MCF-7 mammary carcinoma • WiDr colon tumor cells
(§2) The tests were carried out according to the method of R. van Lambalgen and P. Lelieveld, The PIT Method: an automated in vitro technique for drug toxicity testing. Invest. New Drug 5, 161-165 (1987).
(§3) The ID50 values in ng/ml for the above compounds were determined, i.e. the amount which inhibits 50% of the cell growth.

WiDr colon tumor cells = assay: in vitro cell growth inhibition, PIT method, WiDr; type: cell-based, human; settings: amount which inhibits 50% of the cell growth
Procedure: as §1, §2, §3

Question: For `N.N.[Cl][Pt][Cl]` [Cis-platin], which ID50 (MCF-7 mammary carcinoma) is on record?
Answer: 0.85 µg/mL

Question: And the ID50 (WiDr colon tumor cells)?
Answer: 0.624 µg/mL
